Tests used:
Format in all cases: cell-based
[1] = target: T1, proteins of HEK293T cells transiently overexpressing caspase-6 (Homo sapiens, UniProt Q15942)
T1 sequence (Q15942 1-572): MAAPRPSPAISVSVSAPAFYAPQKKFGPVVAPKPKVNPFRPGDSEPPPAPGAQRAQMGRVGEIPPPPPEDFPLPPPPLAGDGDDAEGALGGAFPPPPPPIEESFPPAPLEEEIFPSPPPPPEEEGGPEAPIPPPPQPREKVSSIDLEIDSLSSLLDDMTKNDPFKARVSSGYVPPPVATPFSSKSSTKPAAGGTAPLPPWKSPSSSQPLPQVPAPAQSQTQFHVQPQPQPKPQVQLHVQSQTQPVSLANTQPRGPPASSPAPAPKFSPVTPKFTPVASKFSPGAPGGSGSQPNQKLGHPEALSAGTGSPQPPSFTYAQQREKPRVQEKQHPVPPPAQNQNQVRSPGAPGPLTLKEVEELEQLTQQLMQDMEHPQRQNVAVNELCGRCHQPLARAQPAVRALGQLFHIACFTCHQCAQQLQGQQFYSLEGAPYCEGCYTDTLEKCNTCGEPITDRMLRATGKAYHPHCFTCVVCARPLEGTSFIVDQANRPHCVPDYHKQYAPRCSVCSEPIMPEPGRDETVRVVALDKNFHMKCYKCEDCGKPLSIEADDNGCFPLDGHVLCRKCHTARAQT

[2] = target: proteins of HEK293T cells transiently overexpressing caspase-6 (Homo sapiens, UniProt P04183); conditions: exp_ref Probe; protein TK1 (P04183); analysis C6
[3] = target: proteins of HEK293T cells transiently overexpressing caspase-6 (Homo sapiens, UniProt P21964); conditions: Probe; protein COMT P21964
[4] = target: proteins of HEK293T cells transiently overexpressing caspase-6 (Homo sapiens, UniProt P38919); conditions: exp_ref Probe; protein EIF4A3 (P38919); analysis C6
[5] = target: proteins of HEK293T cells transiently overexpressing caspase-6 (Homo sapiens, UniProt P61313)
[6] = target: T2, proteins of HEK293T cells transiently overexpressing caspase-6 (Homo sapiens, UniProt Q99832); conditions: protein CCT7 (Q99832)
T2 sequence (Q99832 1-543): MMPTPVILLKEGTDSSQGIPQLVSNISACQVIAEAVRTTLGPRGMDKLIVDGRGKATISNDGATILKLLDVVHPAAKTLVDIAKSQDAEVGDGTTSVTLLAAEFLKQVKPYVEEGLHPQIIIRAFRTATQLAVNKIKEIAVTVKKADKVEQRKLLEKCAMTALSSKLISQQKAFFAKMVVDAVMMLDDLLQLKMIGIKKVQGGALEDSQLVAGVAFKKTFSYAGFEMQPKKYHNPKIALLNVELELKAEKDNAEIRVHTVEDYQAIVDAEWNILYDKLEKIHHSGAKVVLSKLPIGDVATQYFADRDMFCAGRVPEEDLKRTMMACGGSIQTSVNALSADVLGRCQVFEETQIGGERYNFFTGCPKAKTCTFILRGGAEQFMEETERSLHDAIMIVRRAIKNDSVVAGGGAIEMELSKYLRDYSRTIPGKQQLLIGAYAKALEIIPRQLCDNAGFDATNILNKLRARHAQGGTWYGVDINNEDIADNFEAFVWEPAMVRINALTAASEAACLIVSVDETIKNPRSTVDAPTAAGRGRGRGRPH

[7] = target: proteins of HEK293T cells transiently overexpressing caspase-6 (Homo sapiens, UniProt P00338); conditions: Probe; protein LDHA P00338
[8] = target: proteins of HEK293T cells transiently overexpressing caspase-6 (Homo sapiens, UniProt P23526); conditions: exp_ref Probe; protein AHCY (P23526); analysis C6
[9] = target: proteins of HEK293T cells transiently overexpressing caspase-6 (Homo sapiens, UniProt P49588); conditions: Probe; protein AARS P49588
[10] = target: proteins of HEK293T cells transiently overexpressing caspase-6 (Homo sapiens, UniProt Q13085)
[11] = target: proteins of HEK293T cells transiently overexpressing caspase-6 (Homo sapiens, UniProt Q9H307); conditions: exp_ref Probe; protein PNN (Q9H307); analysis C6
[12] = target: proteins of HEK293T cells transiently overexpressing caspase-6 (Homo sapiens, UniProt O14980); conditions: protein XPO1 (O14980); exp_ref Probe; analysis C6
[13] = target: proteins of HEK293T cells transiently overexpressing caspase-6 (Homo sapiens, UniProt P31689); conditions: exp_ref Probe; protein DNAJA1 (P31689); analysis C6
proteins of HEK293T cells transiently overexpressing caspase-6 (Homo sapiens, UniProt P31689), sequence (P31689 whole entry): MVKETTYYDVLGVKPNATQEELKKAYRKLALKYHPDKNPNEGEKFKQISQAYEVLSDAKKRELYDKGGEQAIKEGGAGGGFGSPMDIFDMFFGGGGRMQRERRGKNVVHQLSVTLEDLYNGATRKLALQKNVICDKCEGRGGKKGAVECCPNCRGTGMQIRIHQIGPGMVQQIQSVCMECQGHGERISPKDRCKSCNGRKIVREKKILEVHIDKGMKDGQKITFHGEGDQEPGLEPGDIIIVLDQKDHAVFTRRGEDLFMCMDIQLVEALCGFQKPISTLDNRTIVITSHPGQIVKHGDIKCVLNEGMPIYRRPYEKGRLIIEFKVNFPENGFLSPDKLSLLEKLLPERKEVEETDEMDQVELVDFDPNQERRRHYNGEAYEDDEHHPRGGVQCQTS

proteins of HEK293T cells transiently overexpressing caspase-6 (Homo sapiens, UniProt O14980), sequence (O14980 whole entry): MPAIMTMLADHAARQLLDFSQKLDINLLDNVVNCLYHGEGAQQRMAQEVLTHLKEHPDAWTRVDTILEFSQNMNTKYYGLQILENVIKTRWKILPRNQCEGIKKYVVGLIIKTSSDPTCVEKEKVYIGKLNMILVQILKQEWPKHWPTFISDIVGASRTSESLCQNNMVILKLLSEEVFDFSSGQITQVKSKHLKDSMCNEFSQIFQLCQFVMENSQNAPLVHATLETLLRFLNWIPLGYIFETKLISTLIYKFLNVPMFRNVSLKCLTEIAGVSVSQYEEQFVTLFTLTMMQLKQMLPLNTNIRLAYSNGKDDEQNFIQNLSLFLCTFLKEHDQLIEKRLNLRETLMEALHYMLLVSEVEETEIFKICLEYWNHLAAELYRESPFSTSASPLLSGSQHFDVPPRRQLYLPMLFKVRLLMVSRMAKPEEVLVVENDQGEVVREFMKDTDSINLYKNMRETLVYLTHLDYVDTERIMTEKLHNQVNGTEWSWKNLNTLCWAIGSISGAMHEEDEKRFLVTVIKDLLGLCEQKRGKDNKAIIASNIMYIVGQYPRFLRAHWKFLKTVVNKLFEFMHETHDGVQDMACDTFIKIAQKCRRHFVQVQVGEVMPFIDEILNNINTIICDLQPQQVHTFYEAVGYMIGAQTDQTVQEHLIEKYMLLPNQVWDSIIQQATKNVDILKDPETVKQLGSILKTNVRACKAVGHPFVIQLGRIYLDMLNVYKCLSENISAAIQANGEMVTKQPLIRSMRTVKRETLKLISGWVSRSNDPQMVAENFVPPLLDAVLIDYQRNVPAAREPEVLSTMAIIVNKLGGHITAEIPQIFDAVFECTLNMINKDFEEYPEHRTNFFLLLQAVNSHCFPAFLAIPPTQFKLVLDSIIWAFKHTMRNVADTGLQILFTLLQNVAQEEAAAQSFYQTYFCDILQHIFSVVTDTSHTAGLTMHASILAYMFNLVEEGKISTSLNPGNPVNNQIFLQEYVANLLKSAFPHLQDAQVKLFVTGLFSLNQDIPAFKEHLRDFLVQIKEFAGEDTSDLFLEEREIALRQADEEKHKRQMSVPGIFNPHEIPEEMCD
proteins of HEK293T cells transiently overexpressing caspase-6 (Homo sapiens, UniProt P04183), sequence (P04183 whole entry): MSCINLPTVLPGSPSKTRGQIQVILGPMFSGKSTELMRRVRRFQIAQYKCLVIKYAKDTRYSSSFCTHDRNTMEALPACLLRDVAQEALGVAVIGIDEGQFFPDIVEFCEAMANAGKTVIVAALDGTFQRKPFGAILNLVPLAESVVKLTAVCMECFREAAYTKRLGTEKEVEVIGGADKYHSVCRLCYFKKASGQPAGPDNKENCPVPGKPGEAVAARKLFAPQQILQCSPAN
proteins of HEK293T cells transiently overexpressing caspase-6 (Homo sapiens, UniProt P49588), sequence (P49588 whole entry): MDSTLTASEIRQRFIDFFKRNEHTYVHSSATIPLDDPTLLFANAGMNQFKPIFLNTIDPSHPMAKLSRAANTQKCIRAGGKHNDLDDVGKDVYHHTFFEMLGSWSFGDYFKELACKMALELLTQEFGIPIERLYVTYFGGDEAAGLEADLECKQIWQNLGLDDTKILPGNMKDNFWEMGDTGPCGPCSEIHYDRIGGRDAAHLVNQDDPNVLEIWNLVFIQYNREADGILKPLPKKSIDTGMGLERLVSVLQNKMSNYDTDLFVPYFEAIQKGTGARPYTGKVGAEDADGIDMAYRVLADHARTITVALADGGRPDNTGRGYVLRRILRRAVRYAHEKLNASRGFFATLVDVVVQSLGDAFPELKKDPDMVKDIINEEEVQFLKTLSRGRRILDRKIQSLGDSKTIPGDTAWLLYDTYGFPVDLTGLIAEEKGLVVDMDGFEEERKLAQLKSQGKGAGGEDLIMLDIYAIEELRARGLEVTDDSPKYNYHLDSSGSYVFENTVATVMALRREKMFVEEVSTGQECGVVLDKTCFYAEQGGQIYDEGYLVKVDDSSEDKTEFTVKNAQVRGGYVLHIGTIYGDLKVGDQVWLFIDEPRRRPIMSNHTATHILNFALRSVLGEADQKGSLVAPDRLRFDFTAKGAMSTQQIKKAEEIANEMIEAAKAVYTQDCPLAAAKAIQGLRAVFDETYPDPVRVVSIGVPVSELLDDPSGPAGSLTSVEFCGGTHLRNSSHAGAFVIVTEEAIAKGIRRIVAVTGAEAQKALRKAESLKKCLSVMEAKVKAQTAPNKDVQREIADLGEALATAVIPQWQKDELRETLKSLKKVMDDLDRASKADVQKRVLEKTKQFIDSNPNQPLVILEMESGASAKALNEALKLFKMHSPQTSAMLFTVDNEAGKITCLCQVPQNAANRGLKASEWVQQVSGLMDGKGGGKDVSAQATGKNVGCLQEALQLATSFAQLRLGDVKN
proteins of HEK293T cells transiently overexpressing caspase-6 (Homo sapiens, UniProt P21964), sequence (P21964 whole entry): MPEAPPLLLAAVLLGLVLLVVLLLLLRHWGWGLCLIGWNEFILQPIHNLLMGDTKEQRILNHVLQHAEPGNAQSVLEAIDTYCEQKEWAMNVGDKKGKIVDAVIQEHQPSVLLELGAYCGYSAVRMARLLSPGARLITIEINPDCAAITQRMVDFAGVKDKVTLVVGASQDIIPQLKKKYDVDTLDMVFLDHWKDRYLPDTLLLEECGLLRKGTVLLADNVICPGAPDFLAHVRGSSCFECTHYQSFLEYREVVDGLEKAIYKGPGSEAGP
proteins of HEK293T cells transiently overexpressing caspase-6 (Homo sapiens, UniProt P23526), sequence (P23526 whole entry): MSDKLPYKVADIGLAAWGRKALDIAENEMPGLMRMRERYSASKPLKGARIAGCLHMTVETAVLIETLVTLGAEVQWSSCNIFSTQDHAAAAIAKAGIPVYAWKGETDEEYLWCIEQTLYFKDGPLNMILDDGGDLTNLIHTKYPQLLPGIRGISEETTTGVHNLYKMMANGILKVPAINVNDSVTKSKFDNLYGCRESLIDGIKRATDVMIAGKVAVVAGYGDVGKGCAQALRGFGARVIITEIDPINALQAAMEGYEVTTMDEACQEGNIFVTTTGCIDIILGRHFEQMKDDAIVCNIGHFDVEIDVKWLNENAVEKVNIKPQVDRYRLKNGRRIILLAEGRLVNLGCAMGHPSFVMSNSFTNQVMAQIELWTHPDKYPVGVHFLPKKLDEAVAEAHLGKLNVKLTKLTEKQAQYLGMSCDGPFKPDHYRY
proteins of HEK293T cells transiently overexpressing caspase-6 (Homo sapiens, UniProt P38919), sequence (P38919 whole entry): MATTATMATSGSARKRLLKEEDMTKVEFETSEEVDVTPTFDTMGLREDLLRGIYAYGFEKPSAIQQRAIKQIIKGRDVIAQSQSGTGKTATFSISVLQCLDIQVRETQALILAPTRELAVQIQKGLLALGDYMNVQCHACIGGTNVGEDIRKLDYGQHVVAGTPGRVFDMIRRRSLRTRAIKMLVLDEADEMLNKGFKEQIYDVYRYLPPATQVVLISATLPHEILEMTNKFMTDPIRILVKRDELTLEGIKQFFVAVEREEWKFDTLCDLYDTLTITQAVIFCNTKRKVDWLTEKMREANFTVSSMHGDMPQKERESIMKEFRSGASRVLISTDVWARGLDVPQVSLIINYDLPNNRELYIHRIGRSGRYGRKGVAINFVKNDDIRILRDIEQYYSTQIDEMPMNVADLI
proteins of HEK293T cells transiently overexpressing caspase-6 (Homo sapiens, UniProt Q9H307), sequence (Q9H307 whole entry): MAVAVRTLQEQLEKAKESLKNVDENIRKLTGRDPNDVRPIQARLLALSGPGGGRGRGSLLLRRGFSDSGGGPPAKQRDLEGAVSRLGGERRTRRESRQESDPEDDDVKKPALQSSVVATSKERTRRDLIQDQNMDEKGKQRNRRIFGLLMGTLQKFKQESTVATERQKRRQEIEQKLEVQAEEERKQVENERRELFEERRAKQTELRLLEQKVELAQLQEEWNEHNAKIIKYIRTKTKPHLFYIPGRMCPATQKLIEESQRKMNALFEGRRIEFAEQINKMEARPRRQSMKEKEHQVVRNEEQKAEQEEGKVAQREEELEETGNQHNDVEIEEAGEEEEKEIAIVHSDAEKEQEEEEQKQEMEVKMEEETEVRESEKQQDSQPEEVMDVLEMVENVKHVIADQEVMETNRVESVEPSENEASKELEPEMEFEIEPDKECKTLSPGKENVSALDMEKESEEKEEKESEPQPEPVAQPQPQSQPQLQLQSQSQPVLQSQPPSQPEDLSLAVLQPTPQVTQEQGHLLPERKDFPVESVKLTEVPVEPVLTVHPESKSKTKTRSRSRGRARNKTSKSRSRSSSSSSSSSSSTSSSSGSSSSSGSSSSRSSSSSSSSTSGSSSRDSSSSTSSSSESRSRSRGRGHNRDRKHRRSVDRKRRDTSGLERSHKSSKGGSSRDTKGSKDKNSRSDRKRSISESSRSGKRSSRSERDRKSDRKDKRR

## C#CCOc1ccc([C@@H]2C[C@@H](C(=O)Nc3ccc(OC(F)(F)F)cc3)CN(S(=O)(=O)C=C)C2)cc1 (relative stereo) [13-t]
[1]; Probe, protein ZYX Q15942
  enrich.exp.med: -1.696
[1]; protein ZYX (Q15942)
  enrich.exp.med.lin: 0.3087
  enrich.exp.med.log2: -1.696
[2]
  enrich.exp.med: 1.0337
[3]
  enrich.exp.med: -3.436
[4]
  enrich.exp.med: 0.7561
[5]; Probe, protein RPL15 P61313
  enrich.exp.med: -0.9576
[5]; protein RPL15 (P61313)
  enrich.exp.med.lin: 0.5149
  enrich.exp.med.log2: -0.9576
[6]; exp_ref Probe, analysis C6
  enrich.exp.med: 0.5798
[6]
  enrich.exp.med.lin: 1.495
  enrich.exp.med.log2: 0.5798
[7]
  enrich.exp.med: -0.5222
[8]
  enrich.exp.med: 0.06916
[9]
  enrich.exp.med: -2.083
[10]; Probe, protein ACACA Q13085
  enrich.exp.med: -2.123
[10]; protein ACACA (Q13085)
  enrich.exp.med.lin: 0.2296
  enrich.exp.med.log2: -2.123
[11]
  enrich.exp.med: 0.5676
[12]
  enrich.exp.med: 1.753
[13]
  enrich.exp.med: 0.404
